From patent US10501464B2, “7-oxo-6-(sulfooxy)-1,6-diazabicyclo[3.2.1]octane-2-carboxamide containing compounds and their use in treating bacterial infections” (WOCKHARDT LIMITED, priority 2015, dated 2019) come the findings set out here.

Holding throughout (assay): Antibacterial activity, MIC by agar dilution (CLSI)
Holding throughout (format): cell-based
(In agar dilution, organisms are placed on agar that contains the substance at set levels.)

One test relates to E. coli 13352. To be noted: Escherichia coli, 13352, E. coli 13352; compound tested alone; read-out: MIC. The method, then: (§1) The biological activity of representative compounds according to the invention against various bacterial strains was investigated. In a typical study, overnight grown bacterial cultures were diluted appropriately and inoculated on the agar media containing doubling dilutions of the test compounds. Observations for growth or no growth was performed after 16-20 hours of incubation at 35±2° C. in the ambient air. The overall procedure was performed as per Clinical and Laboratory Standards Institute (CLSI) recommendations, (Clinical and Laboratory Standards Institute (CLSI), Performance Standards for Antimicrobial Susceptibility Testing, 20th Informational Supplement, M07-A9, Volume 32, No. 2, 2012). Molten Mueller Hinton Agar (BD, USA) containing serial dilutions of each antibacterial agent were poured on to the plates and allowed to solidify. Appropriate suspensions from the freshly grown cultures were prepared in normal saline so that about 10^4CFU/spot of the organism was delivered on to the drug containing agar plates using automated multipoint inoculator (Mast, UK). The plates were incubated in Biochemical oxygen demand (BOD) incubator at 37° C. for 18 hours and then examined for growth.
(§2) Method for the determination of MIC: The Minimum Inhibitory Concentration (MIC) determination for the combinations was carried out in Muller Hinton Agar (MHA) (BD, USA) according to Clinical and Laboratory Standards Institute (CLSI) recommendations, (Clinical and Laboratory Standards Institute (CLSI), Performance Standards for Antimicrobial Susceptibility Testing, 20th Informational Supplement, M 100-S20, Volume 30, No. 1, 2010). In short, the test strains were adjusted to deliver about 10^4CFU per spot with a multipoint inoculator (Applied Quality Services, UK). The plates were poured with MHA containing doubling concentration range of representative compounds according to present invention. The plates were inoculated and were incubated at 35° C. for 18 hour. […] The Table 2 depicts the antibacterial activity profile of compounds according to present invention against various multidrug resistant bacterial strains.

Test [1] has as its system K. pneumoniae ATCC 700603. To be noted: Klebsiella pneumoniae, ATCC700603, compound tested alone, read-out: MIC. The method, then:
as §1, §2

For the next test, the system named is E. coli 7 MP. As to conditions: Escherichia coli, 7MP, compound tested alone, read-out: MIC. The method, then: as §1, §2
The subject of a further test is K. pneumoniae H 523. To be noted: Klebsiella pneumoniae, H523, K. pneumoniae H 523; compound tested alone; read-out: MIC. The method, then:
as §1, §2

In a further test the test system is K. pneumoniae H 521. As to conditions: Klebsiella pneumoniae, H521, K. pneumoniae H 521; compound tested alone; read-out: MIC. The method, then: as §1, §2
A further test deals with E. coli 13351. As to conditions: Escherichia coli, 13351, E. coli 13351; compound tested alone; read-out: MIC. The method, then:
as §1, §2

The next test deals with E. coli 13353. As to conditions: Escherichia coli, 13353, E. coli 13353; compound tested alone; read-out: MIC. The method, then: as §1, §2
The subject of the next test is K. pneumoniae H 522. As to conditions: Klebsiella pneumoniae, H522, K. pneumoniae H 522; compound tested alone; read-out: MIC. The method, then:
as §1, §2

The next test deals with P. mirabilis S 137B. To be noted: Proteus mirabilis, S137B, compound tested alone, read-out: MIC. The method, then:
as §1, §2

A further test relates to E. coli M 50. As to conditions: Escherichia coli, M50, E. coli M 50; compound tested alone; read-out: MIC. The method, then: as §1, §2
The next test concerns E. coli M 138. To be noted: Escherichia coli, M138, E. coli M 138; compound tested alone; read-out: MIC. The method, then:
as §1, §2

A further test has as its system K. pneumoniae H 525. As to conditions: Klebsiella pneumoniae, H525, K. pneumoniae H 525; compound tested alone; read-out: MIC. The method, then:
as §1, §2

The test system of another test is E. coli M 36. To be noted: Escherichia coli, M36, E. coli M 36; compound tested alone; read-out: MIC. The method, then: as §1, §2
For a further test, the system named is E. coli M 49. To be noted: Escherichia coli, M49, E. coli M 49; compound tested alone; read-out: MIC. The method, then: as §1, §2

For orientation: MIC means the least concentration at which growth counts as inhibited. Consider `O=C(NOC[C@@H]1CC(n2cccn2)CN1)[C@@H]1CC[C@@H]2CN1C(=O)N2OS(=O)(=O)O` (some centres unmarked) [Example 8], for which the MIC with E. coli 13352 was 1 µg/mL; in test [1], above 32 µg/mL; in the test on E. coli 7 MP, 2 µg/mL; in the test on K. pneumoniae H 523, 1 µg/mL; in the test with K. pneumoniae H 521, 1 µg/mL; in the test on E. coli 13351, 1 µg/mL. The MIC was 0.5 µg/mL with E. coli 13353; 1 µg/mL in the test with K. pneumoniae H 522; above 32 µg/mL in the test with P. mirabilis S 137B; 1 µg/mL in the test on E. coli M 50; 1 µg/mL with E. coli M 138; 1 µg/mL in the test with K. pneumoniae H 525. The MIC in the test with E. coli M 36 worked out at 0.5 µg/mL; in the test on E. coli M 49, 4 µg/mL.
Take `Cc1nnn([C@@H]2CN[C@H](C(=O)NNC(=O)[C@@H]3CC[C@@H]4CN3C(=O)N4OS(=O)(=O)O)C2)n1` [Example 31]: the MIC with E. coli 13352 was 4 µg/mL; in test [1], above 32 µg/mL; in the test with E. coli 7 MP, 16 µg/mL; with K. pneumoniae H 523 it was 16 µg/mL; in the test on K. pneumoniae H 521, 16 µg/mL; in the test on E. coli 13351, 4 µg/mL. In addition, the minimum inhibitory concentration (MIC) in the test on E. coli 13353 is 4 µg/mL; in the test on K. pneumoniae H 522, 16 µg/mL; with P. mirabilis S 137B, above 32 µg/mL; in the test on E. coli M 50, 8 µg/mL; in the test on E. coli M 138 it was 8 µg/mL; in the test on K. pneumoniae H 525, 8 µg/mL. Also, the MIC in the test with E. coli M 36 is 4 µg/mL; in the test on E. coli M 49, above 32 µg/mL.
As for `O=C(NNC(=O)[C@@H]1CC[C@@H]2CN1C(=O)N2OS(=O)(=O)O)[C@@H]1C[C@H](n2ccnn2)CN1` [Example 26], the MIC in the test on E. coli 13352 was 2 µg/mL; in test [1], above 32 µg/mL; in the test with E. coli 7 MP, 8 µg/mL; in the test on K. pneumoniae H 523, 16 µg/mL; in the test with K. pneumoniae H 521, 8 µg/mL; with E. coli 13351, 2 µg/mL. Also, the MIC is 2 µg/mL in the test on E. coli 13353; 8 µg/mL in the test on K. pneumoniae H 522; above 32 µg/mL in the test on P. mirabilis S 137B; 4 µg/mL in the test with E. coli M 50; 4 µg/mL in the test on E. coli M 138; 16 µg/mL in the test with K. pneumoniae H 525. Besides, the minimal inhibitory concentration (MIC) in the test with E. coli M 36 is 4 µg/mL; with E. coli M 49 it was above 32 µg/mL.
As to `O=C(NNC(=O)[C@@H]1CC[C@@H]2CN1C(=O)N2OS(=O)(=O)O)[C@@H]1C[C@H](n2ncnn2)CN1` [Example 23], the minimum inhibitory concentration (MIC) in the test on E. coli 13352 was 2 µg/mL; in [1] it was above 32 µg/mL; with E. coli 7 MP, 4 µg/mL; in the test with K. pneumoniae H 523, 4 µg/mL; in the test on K. pneumoniae H 521, 4 µg/mL; with E. coli 13351 it was 2 µg/mL. Moreover, the MIC with E. coli 13353 was 1 µg/mL; in the test on K. pneumoniae H 522, 4 µg/mL; with P. mirabilis S 137B, above 32 µg/mL; in the test on E. coli M 50, 1 µg/mL; with E. coli M 138, 2 µg/mL; with K. pneumoniae H 525, 4 µg/mL. Further, the results for the MIC in the test with E. coli M 36 and in the test on E. coli M 49 were 1 µg/mL and 8 µg/mL, respectively.
`O=C(NOC[C@@H]1C[C@H](n2ccnn2)CN1)[C@@H]1CC[C@@H]2CN1C(=O)N2OS(=O)(=O)O` [Example 6]: the minimum inhibitory concentration (MIC) with E. coli 13352 was 2 µg/mL; in test [1], above 32 µg/mL; with E. coli 7 MP it was 4 µg/mL; in the test on K. pneumoniae H 523, 2 µg/mL; in the test on K. pneumoniae H 521 it was 2 µg/mL; in the test on E. coli 13351, 2 µg/mL. In addition, the MIC in the test with E. coli 13353 was 1 µg/mL; in the test with K. pneumoniae H 522, 2 µg/mL; with P. mirabilis S 137B it was above 32 µg/mL; in the test with E. coli M 50, 1 µg/mL; in the test with E. coli M 138, 1 µg/mL; in the test with K. pneumoniae H 525, 2 µg/mL. Besides, the MIC amounted to 1 µg/mL in the test with E. coli M 36 and 8 µg/mL with E. coli M 49.
In the case of `O=C(NOC[C@@H]1C[C@H](n2cncn2)CN1)[C@@H]1CC[C@@H]2CN1C(=O)N2OS(=O)(=O)O` [Example 9], the MIC in the test on E. coli 13352 was 2 µg/mL; in test [1] it was above 32 µg/mL; in the test with E. coli 7 MP it was 2 µg/mL; in the test with K. pneumoniae H 523 it was 2 µg/mL; in the test with K. pneumoniae H 521 it was 2 µg/mL; with E. coli 13351, 2 µg/mL. The MIC in the test with E. coli 13353 is 1 µg/mL; in the test on K. pneumoniae H 522 it was 2 µg/mL; in the test with P. mirabilis S 137B, above 32 µg/mL; with E. coli M 50, 1 µg/mL; in the test on E. coli M 138, 1 µg/mL; in the test on K. pneumoniae H 525, 2 µg/mL. Moreover, the MIC in the test on E. coli M 36 was found to be 1 µg/mL; with E. coli M 49 it was 4 µg/mL.
`O=C(NNC(=O)[C@@H]1CC[C@@H]2CN1C(=O)N2OS(=O)(=O)O)[C@@H]1C[C@@H](n2ccnc2)CN1` [Example 33]: the MIC was 4 µg/mL in the test on E. coli 13352; above 32 µg/mL in [1]; 8 µg/mL in the test on E. coli 7 MP; 4 µg/mL with K. pneumoniae H 523; 8 µg/mL in the test on K. pneumoniae H 521; 4 µg/mL in the test with E. coli 13351. Moreover, the MIC in the test with E. coli 13353 is 4 µg/mL; with K. pneumoniae H 522 it was 4 µg/mL; in the test on P. mirabilis S 137B it was above 32 µg/mL; in the test on E. coli M 50, 2 µg/mL; with E. coli M 138, 4 µg/mL; with K. pneumoniae H 525 it was 4 µg/mL. Moreover, the MIC was 2 µg/mL with E. coli M 36 and 16 µg/mL in the test on E. coli M 49.
In the case of `O=C(NNC(=O)[C@@H]1CC[C@@H]2CN1C(=O)N2OS(=O)(=O)O)C1C[C@H](n2cccn2)CN1` (some centres unmarked) [Example 27], the minimum inhibitory concentration (MIC) in the test with E. coli 13352 is 1 µg/mL; in test [1], above 32 µg/mL; in the test with E. coli 7 MP, 8 µg/mL; with K. pneumoniae H 523 it was 4 µg/mL; with K. pneumoniae H 521, 4 µg/mL; with E. coli 13351, 1 µg/mL. For the same molecule, the MIC in the test with E. coli 13353 is 1 µg/mL; with K. pneumoniae H 522 it was 4 µg/mL; in the test with P. mirabilis S 137B it was above 32 µg/mL; in the test with E. coli M 50 it was 1 µg/mL; in the test with E. coli M 138, 2 µg/mL; in the test with K. pneumoniae H 525 it was 4 µg/mL. Further, the minimum inhibitory concentration (MIC) was 1 µg/mL in the test with E. coli M 36 and above 32 µg/mL in the test on E. coli M 49.
Take `O=C(NOC[C@@H]1C[C@H](n2nccn2)CN1)[C@@H]1CC[C@@H]2CN1C(=O)N2OS(=O)(=O)O` [Example 5]: the MIC in the test on E. coli 13352 is 1 µg/mL; in test [1], above 32 µg/mL; with E. coli 7 MP, 2 µg/mL; in the test with K. pneumoniae H 523 it was 4 µg/mL; with K. pneumoniae H 521, 4 µg/mL; in the test with E. coli 13351, 1 µg/mL. The MIC in the test on E. coli 13353 is 1 µg/mL; in the test on K. pneumoniae H 522 it was 4 µg/mL; in the test on P. mirabilis S 137B, above 32 µg/mL; with E. coli M 50, 1 µg/mL; in the test with E. coli M 138, 1 µg/mL; in the test on K. pneumoniae H 525, 4 µg/mL. The values for the MIC with E. coli M 36 and in the test on E. coli M 49 were 1 µg/mL and 8 µg/mL, respectively.
For `O=C(NNC(=O)[C@@H]1CC[C@@H]2CN1C(=O)N2OS(=O)(=O)O)[C@@H]1C[C@H](n2ccnc2)CN1` [Example 30], the MIC with E. coli 13352 is 8 µg/mL; in [1] it was above 32 µg/mL; with E. coli 7 MP, 16 µg/mL; with K. pneumoniae H 523, 2 µg/mL; with K. pneumoniae H 521, 2 µg/mL; in the test with E. coli 13351 it was 4 µg/mL. The MIC with E. coli 13353 is 4 µg/mL; in the test with K. pneumoniae H 522, 2 µg/mL; with P. mirabilis S 137B, above 32 µg/mL; in the test on E. coli M 50 it was 4 µg/mL; with E. coli M 138 it was 8 µg/mL; in the test on K. pneumoniae H 525, 2 µg/mL. For the same molecule, the figures for the MIC with E. coli M 36 and in the test on E. coli M 49 were 4 µg/mL and 16 µg/mL, respectively.
